From ChEMBL document CHEMBL1201862, “PubChem BioAssay data set” (2004) come the findings set out here.

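Test compounds were applied to cells in 96-well plates for 48 hours at 5 doses. GI50 = concentration required for 50% inhibition of growth.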 Activity calls are given as the source filed them. Cut-off read from the data, not from the text of the source: active = GI50 up to about 1.1 µM and inactive = higher. Bridge positions count the residues as written; N and C are the ends. Square brackets hold non-standard residues; d marks the D form. Peptide text beside a SMILES is read from it. * marks the point of attachment. Cya = N[CH](CS(=O)(=O)O)C(=O)O; X49 = CC(C)CCCCCCCC(O)CC(=O)*; GABA = NCCCC(=O)O

Common to all, as to experiment: inhibition of tumour cell growth, NCI panel, 48 h
Assay [1] concerns HCT-15.
The test system of assay [2] is UACC-257.
Assay [3] concerns KM12.
Assay [4] concerns SNB-75.
Assay [5] has as its system HCT-116.
The test system of assay [6] is SR.
Assay [7] relates to SK-OV-3.
Assay [8] relates to A549.
The subject of assay [9] is HL-60.
Assay [10] deals with SF-268.
In assay [11] the test system is CAKI-1.
In assay [12] the test system is SK-MEL-5.
For assay [13], the system named is T47D.
The test system of assay [14] is RPMI-8226.
For assay [15], the system named is Malme-3M.
Assay [16] has as its system M14.
Assay [17] deals with NCI/ADR-RES.
The test system of assay [18] is IGROV-1.
In assay [19] the test system is SF-295.
The test system of assay [20] is NCI-H23.

As to `Cc1cc(S(=O)(=O)Nc2nc(N)n(-c3ccccc3)n2)c(S)cc1Cl`, the GI50 is > 100 µM in assay [1]; > 100 µM (inactive) in assay [2]; > 100 µM (inactive) in [3]; > 100 µM (inactive) in [4]; > 100 µM (inactive) in assay [5]; > 100 µM (inactive) in assay [6]. In addition, the GI50 in assay [7], in assay [8], in [9], in [10], in assay [11] and in assay [12] was > 100 µM (inactive) throughout. Moreover, the GI50 in [13], in [14], in [15], in assay [16], in assay [17] and in assay [18] was > 100 µM (inactive) in each case.
For `ClCc1c(-c2ccccc2)nn(-c2ccccc2)c1CCl`, the GI50 was 12.2 µM in [1]; 15.3 µM (inactive) in [2]; 13.2 µM (inactive) in [3]; 4.18 µM (inactive) in assay [4]; 8.09 µM (inactive) in [5]; 2.33 µM (inactive) in assay [6]. Moreover, the GI50 in [8] was 16.5 µM (inactive); in assay [19] it was 17.2 µM (inactive); in assay [9], 3.14 µM (inactive); in assay [10] it was 16.6 µM (inactive); in [11], 1.83 µM (inactive); in assay [12], 12.4 µM (inactive). Also, the GI50 in assay [13] was 2 µM (inactive); in assay [14], 2.26 µM (inactive); in assay [20] it was 15.6 µM (inactive); in assay [15], 16.4 µM (inactive); in assay [16] it was 15.4 µM (inactive); in assay [17] it was 29.4 µM (inactive). In addition, in assay [18], the GI50 is 6.79 µM (inactive).
Turning to `O=c1[nH]/c(=C/c2ccc(OCc3ccccc3)cn2)c(=O)[nH]/c1=C/c1ccc([N+](=O)[O-])cc1`, the GI50 in assay [1] was > 100 µM; in [2] it was > 100 µM (inactive); in assay [3], > 100 µM (inactive); in [4] it was 27.1 µM (inactive); in assay [5] it was > 100 µM (inactive); in assay [6], > 58.3 µM (inactive). The GI50 in assay [7] is > 73.5 µM (inactive); in assay [8], > 100 µM (inactive); in assay [19], 49.1 µM (inactive); in assay [9], > 100 µM (inactive); in assay [10], > 54.2 µM (inactive); in [11], > 37.8 µM (inactive). Moreover, the GI50 in assay [12], in assay [13], in assay [14], in assay [20], in assay [15] and in assay [16] was > 100 µM (inactive) each time. Also, the GI50 in assay [17] and in assay [18] was > 100 µM (inactive) throughout.
Turning to `CC(Br)C(=O)c1ccc2cc(Br)c3ccccc3c2c1` (stereo not drawn), the GI50 in [1] was 16.6 µM; in [2], 16.9 µM (inactive); in assay [3], 17.2 µM (inactive); in assay [4] it was 15.2 µM (inactive); in assay [5] it was 15.2 µM (inactive); in assay [6], 3.15 µM (inactive). In addition, the GI50 in [7] was 16.8 µM (inactive); in assay [8] it was 20 µM (inactive); in assay [19], 16.4 µM (inactive); in assay [9], 12 µM (inactive); in assay [10] it was 16.3 µM (inactive); in [11], 16.1 µM (inactive). Further, the GI50 in assay [12] is 14 µM (inactive); in [13], 11.9 µM (inactive); in assay [14], 4.65 µM (inactive); in [20], 16 µM (inactive); in [15] it was 15.1 µM (inactive); in assay [16], 16.1 µM (inactive). Besides, the GI50 in assay [17] is 18 µM (inactive); in assay [18], 13.1 µM (inactive).
`CCN(CC)CCNc1ccc([N+](=O)[O-])c2nc3ccccc3c(N)c12`: the GI50 is 0.41 µM in assay [1]; 0.931 µM (active) in assay [2]; 0.293 µM (active) in assay [3]; 1.17 µM (inactive) in [4]; 0.127 µM (active) in [5]; 0.243 µM (active) in [6]. Also, the GI50 is 0.726 µM (active) in [7]; 0.385 µM (active) in assay [8]; 0.498 µM (active) in [19]; 0.297 µM (active) in assay [9]; 0.482 µM (active) in assay [10]; 1.23 µM (inactive) in [11]. In addition, the GI50 in assay [12] was 0.166 µM (active); in [13], 0.662 µM (active); in assay [14], 0.311 µM (active); in assay [20], 0.485 µM (active); in assay [16] it was 0.456 µM (active); in [17], 0.401 µM (active). For the same compound, in [18], the GI50 is 0.377 µM (active).
For the compound `CN(c1ccccc1Cl)S(=O)(=O)c1ccccc1[N+](=O)[O-]`, the GI50 in [1] was 48.9 µM; in [2], 45.1 µM (inactive); in assay [3] it was 38.9 µM (inactive); in assay [4] it was 40.6 µM (inactive); in assay [5], 33.6 µM (inactive); in assay [6] it was 35.5 µM (inactive). The GI50 in assay [7] is 51.5 µM (inactive); in assay [8] it was 37.2 µM (inactive); in assay [19], 71.4 µM (inactive); in assay [9], 24 µM (inactive); in assay [10], 55.8 µM (inactive); in assay [11], 48.8 µM (inactive). Moreover, the GI50 in [12] is 15.3 µM (inactive); in assay [13], 90.6 µM (inactive); in [14] it was 24.8 µM (inactive); in [20], 35.2 µM (inactive); in assay [15] it was 79.6 µM (inactive); in [16], 17.3 µM (inactive). For the same compound, the GI50 in [17] was 27.9 µM (inactive); in [18], 70.1 µM (inactive).
For the compound `CCOC(=O)C1c2[nH]c3ccccc3c2CCN1C(=O)c1ccco1` (stereo not drawn), the GI50 is > 10 µM in [1]; > 10 µM (inactive) in assay [2]; > 10 µM (inactive) in assay [3]; > 10 µM (inactive) in assay [4]; > 10 µM (inactive) in [5]; > 10 µM (inactive) in assay [6]. The GI50 in assay [7], in [8], in assay [19], in assay [9], in assay [10] and in [11] was > 10 µM (inactive) in each case. Besides, the GI50 in assay [12], in [13], in assay [14], in assay [15], in [16] and in assay [17] was > 10 µM (inactive) each time. Also, the GI50 in assay [18] was > 10 µM (inactive).
As for `CC(C)CCCCCCCC(O)CC(=O)NC(CS(=O)(=O)O)C(=O)NC(CC(C)C)C(=O)NCCCC(=O)NC(Cc1c[nH]cn1)C(=O)NC(C)C(=O)NC1C(=O)NC(C(C)O)C(=O)NC(Cc2c[nH]cn2)C(=O)NC(C)C(=O)NC(C(C)O)C(=O)OC1C` (stereo not drawn) (X49-[Cya]L[GABA]HATTHAT; ester 6-C; configuration not given here), the GI50 is > 25 µM in [1]; > 25 µM (inactive) in [2]; > 25 µM (inactive) in assay [3]; > 25 µM (inactive) in assay [4]; > 25 µM (inactive) in assay [5]; 17.5 µM (inactive) in assay [6]. The GI50 in assay [7], in assay [8], in assay [19], in assay [9], in assay [11] and in [12] was > 25 µM (inactive) each time. For the same compound, the GI50 in assay [13], in assay [14], in assay [20], in assay [15], in assay [16] and in assay [17] was > 25 µM (inactive) throughout. Also, the GI50 in [18] is > 25 µM (inactive).
`CC12CCC(C/C1=N\NC(N)=O)C2(C)C` (stereo not drawn): the GI50 in [1] is > 100 µM; in assay [2], > 100 µM (inactive); in assay [3] it was > 100 µM (inactive); in assay [4], > 100 µM (inactive); in assay [5], > 100 µM (inactive); in assay [6], > 100 µM (inactive). Moreover, the GI50 in assay [7], in assay [8], in [19], in [9], in [10] and in assay [11] was > 100 µM (inactive) throughout. Further, the GI50 in [12], in assay [13], in [14], in [20], in [15] and in [16] was > 100 µM (inactive) throughout. The GI50 in assay [17] and in assay [18] was > 100 µM (inactive) throughout.
On to `Cc1nc(O)nc(NNCc2ccc(Cl)cc2)c1C(=O)Nc1ccc(Cl)cc1`, for which the GI50 in assay [1] was 50.1 µM; in assay [2], > 100 µM (inactive); in assay [3] it was > 100 µM (inactive); in assay [4], > 100 µM (inactive); in assay [5], > 100 µM (inactive); in [6], > 100 µM (inactive). The GI50 in assay [7], in [8], in assay [19], in assay [9], in assay [11] and in [12] was > 100 µM (inactive) each time. Besides, the GI50 in assay [13], in assay [14], in assay [20], in assay [15], in assay [16] and in [17] was > 100 µM (inactive) each time. Further, the GI50 in assay [18] was > 100 µM (inactive).
